Measurements from patent US20260258003A1, “SLACK-ACTIVATING COMPOUNDS AND THEIR MEDICAL USE” (Johann Wolfgang Goethe-Universität Frankfurt am Main, priority 2023, published 2026).

Tests used:
[1] = system: neuropathic pain behavior of mice; assay: Spared nerve injury (SNI) model of neuropathic pain; assay type: in vivo; settings: i.p., 28 days after SNI surgery, assessed over 3 h
Protocol: FIG. 8: Compound 6 and Compound 10 inhibit histamine-independent acute itch behavior and neuropathic pain behavior. (A), (B), Motor function. […] Dotted lines indicate cutoff times. * p<0.05, *** p<0.001, Kruskal-Wallis test. (C)-(G), Acute itch behavior. Compound 6, Compound 10 or vehicle were i.p. administered and 15 min thereafter different pruritogens were s.c. administered into the nape of the neck and the number of scratching bouts was counted over 30 min. In each panel, the time course of scratching behavior is shown on the left and the sum of scratching bouts in 30 min is presented on the right. (C), Compound 6 and Compound 10 inhibited the scratching behavior induced by chloroquine in a dose-dependent manner. (D) Compound 6 inhibited the chloroquine-induced scratching behavior in WT mice but not in Slack^−/− littermates. (E) Compound 6 ameliorated the scratching behavior induced by SLIGRL, (F) but not by histamine. n=7-8 per group. […] Twenty-eight days thereafter, mechanical hypersensitivity of the affected hindpaw (determined using a Dynamic Plantar Aesthesiometer), which is indicated by decreased paw withdrawal latency time, was detected in all mice. Then Compound 10 or vehicle were i.p. administered and the mechanical sensitivity was assessed over 3 h. […]

[2] = biological target: T1, cannabinoid receptor 1 (CB1) (Homo sapiens, UniProt P21554); assay: SafetyScreen44 binding; settings: 10 μM; substantial = higher than 50%
T1 construct: Eurofins SafetyScreen44
T1 sequence (P21554 whole entry): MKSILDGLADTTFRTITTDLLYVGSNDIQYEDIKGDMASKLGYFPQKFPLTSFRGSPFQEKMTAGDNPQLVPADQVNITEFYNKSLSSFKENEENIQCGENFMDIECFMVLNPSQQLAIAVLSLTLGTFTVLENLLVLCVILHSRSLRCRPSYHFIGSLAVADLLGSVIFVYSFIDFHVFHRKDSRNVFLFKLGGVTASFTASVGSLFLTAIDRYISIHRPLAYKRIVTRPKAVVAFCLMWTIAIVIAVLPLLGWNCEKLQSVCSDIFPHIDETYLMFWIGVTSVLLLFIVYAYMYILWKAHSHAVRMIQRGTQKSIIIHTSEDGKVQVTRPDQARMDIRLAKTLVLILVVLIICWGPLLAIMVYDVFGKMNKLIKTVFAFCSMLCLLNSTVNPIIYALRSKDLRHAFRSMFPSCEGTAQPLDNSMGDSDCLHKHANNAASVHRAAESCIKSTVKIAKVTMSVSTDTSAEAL
Protocol: (§1) Compound enzyme inhibition effect was calculated as a % inhibition of control enzyme activity. […] Measurements were performed in duplicate.

[3] = biological target: T2, short form of dopamine receptor D2 (D2S) (Homo sapiens, UniProt P14416); assay: SafetyScreen44 binding; settings: 10 μM; substantial = higher than 50%
T2 construct: Eurofins SafetyScreen44
T2 sequence (P14416 1-414 isoform P14416-2): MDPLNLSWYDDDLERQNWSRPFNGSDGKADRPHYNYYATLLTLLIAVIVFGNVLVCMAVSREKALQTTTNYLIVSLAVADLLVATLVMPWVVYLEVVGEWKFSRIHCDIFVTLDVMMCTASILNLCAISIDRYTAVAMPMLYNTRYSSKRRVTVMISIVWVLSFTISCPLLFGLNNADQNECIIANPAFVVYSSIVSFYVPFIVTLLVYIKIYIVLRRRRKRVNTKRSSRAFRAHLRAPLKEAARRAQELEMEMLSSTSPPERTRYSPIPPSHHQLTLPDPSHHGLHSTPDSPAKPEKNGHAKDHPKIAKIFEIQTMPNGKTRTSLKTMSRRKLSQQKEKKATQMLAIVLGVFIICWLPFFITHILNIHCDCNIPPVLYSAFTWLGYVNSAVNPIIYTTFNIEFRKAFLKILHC
Protocol: as §1

[4] = system: SLIGRL-induced scratching behavior of mice; assay: SLIGRL-induced acute itch model; assay type: in vivo; settings: 10 mg/kg i.p.
Protocol: Further studies were conducted to assess the in vivo efficacy of Compound 6 and Compound 10 in mice. In detail, experiments were performed in 8 to 16 weeks old C57BL/6N mice (Charles River, Sulzfeld, Germany) and animals with a genetic deletion of Slack (Slack^−/− mice^27) of either sex. Animals were housed on a 12 h light/dark cycle with access to food and water ad libitum. […]
Acute itch behavior of the mice was monitored using a histamine-based, chloroquine-based and SLIGRL-based acute itch behavior model. […] Numbers of scratching bouts directed to the nape of the neck were assessed over 30 min by videotaping.
Antipruritic efficacy of Compound 6 in histamine-independent itch evoked by SLIGRL injection: The chloroquine-induced scratching in mice is driven by activation of MrgprA3 in the NP2 population of sensory neurons^4,29. To further explore the antipruritic efficacy of Compound 6 in histamine-independent itch, the inventors assessed the behavioral response after s.c. injection of the peptide Ser-Leu-Ile-Gly-Arg-Leu (SLIGRL) that evokes scratching by activation of MrgprC11 (ref^30), which is expressed in the NP2 and NP3 population^4. […]

[5] = system: MC903-induced persistent itch behavior of mice; assay: MC903 model of persistent itch (skin inflammation); assay type: in vivo; settings: i.p. at day 8, vs vehicle
Protocol: Similarly, the effect of Compound 6 was also examined in the MC903 model of skin inflammation, which has some characteristics of allergic contact dermatitis and atopic dermatitis^32.
The fur on the dorsolateral aspect of the neck was shaved under brief isoflurane anesthesia. Five days thereafter, 20 μL MC903 (0.2 mM; Calcipotriol, Tocris) solved in absolute ethanol was applied to the skin at the back of the neck in brief anesthesia for 7 consecutive days. On day 8, mice were habituated for 30 min in separate plexiglass cylinders (30 cm diameter). Compounds or vehicle (10% 2-hydroxypropyl-β-cyclodextrine in 0.9% saline) were i.p. administered, and 15 min thereafter spontaneous scratching was recorded over 30 min by videotaping (FIG. 10D). […] These findings are important, because they indicate that Slack activators can ameliorate pruritus that has already established.

muscarine M1 receptor = muscarine M1 receptor (Homo sapiens, UniProt P11229); assay: SafetyScreen44 binding; settings: substantial = higher than 50%
muscarine M1 receptor, sequence (P11229 whole entry): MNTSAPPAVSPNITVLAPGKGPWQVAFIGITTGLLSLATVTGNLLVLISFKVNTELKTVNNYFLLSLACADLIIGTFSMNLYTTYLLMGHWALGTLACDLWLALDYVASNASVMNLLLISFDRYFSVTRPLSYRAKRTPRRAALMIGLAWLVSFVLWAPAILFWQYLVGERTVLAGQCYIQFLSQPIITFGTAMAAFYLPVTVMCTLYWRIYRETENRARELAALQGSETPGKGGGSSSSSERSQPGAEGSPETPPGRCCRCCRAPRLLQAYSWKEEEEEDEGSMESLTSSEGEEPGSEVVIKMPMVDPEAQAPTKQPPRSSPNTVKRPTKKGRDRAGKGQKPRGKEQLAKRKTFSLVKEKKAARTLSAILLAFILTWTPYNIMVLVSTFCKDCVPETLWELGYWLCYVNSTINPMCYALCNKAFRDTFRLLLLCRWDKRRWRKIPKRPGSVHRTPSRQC

muscarine M3 receptor = biological target: T3, muscarine M3 receptor (Homo sapiens, UniProt P20309); assay: SafetyScreen44 binding; settings: substantial = higher than 50%
T3 construct: Eurofins SafetyScreen44
T3 sequence (P20309 whole entry): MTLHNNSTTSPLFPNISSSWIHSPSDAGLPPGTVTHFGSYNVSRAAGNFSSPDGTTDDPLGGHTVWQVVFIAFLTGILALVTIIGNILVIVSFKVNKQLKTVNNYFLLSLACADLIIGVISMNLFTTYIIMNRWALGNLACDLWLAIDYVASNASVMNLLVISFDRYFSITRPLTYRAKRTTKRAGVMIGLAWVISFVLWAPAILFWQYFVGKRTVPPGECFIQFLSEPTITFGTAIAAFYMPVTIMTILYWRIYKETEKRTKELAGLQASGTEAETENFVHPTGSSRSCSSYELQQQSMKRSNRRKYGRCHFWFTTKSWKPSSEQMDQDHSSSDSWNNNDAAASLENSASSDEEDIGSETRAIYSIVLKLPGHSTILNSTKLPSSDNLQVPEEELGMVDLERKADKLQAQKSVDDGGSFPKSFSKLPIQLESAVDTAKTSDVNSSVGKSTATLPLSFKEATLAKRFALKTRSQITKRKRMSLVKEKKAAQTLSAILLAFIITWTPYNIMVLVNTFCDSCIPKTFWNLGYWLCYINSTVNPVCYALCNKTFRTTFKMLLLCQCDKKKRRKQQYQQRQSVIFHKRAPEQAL

O=c1nc(CN2CCN(C3=Nc4ccccc4Oc4ccc(Cl)cc43)CC2)[nH][nH]1 [Compound 10, 5-((4-(2-Chlorodibenzo[b,f][1,4]oxazepin-11-yl)piperazin-1-yl)methyl)-1,2-dihydro-3H-1,2,4-triazol-3-one]
neuropathic pain behavior (mechanical hypersensitivity, paw withdrawal latency) [1]: inhibited the neuropathic pain behavior | binding inhibition, CB1 [2]: substantial binding inhibition

O=C(O)COCCN1CCN(C2=Nc3ccccc3Oc3ccc(Cl)cc32)CC1 [Compound 6, 2-(2-(4-(2-Chlorodibenzo[b,f][1,4]oxazepin-11-yl)piperazin-1-yl)ethoxy) acetic acid]
binding inhibition, D2S [3]: substantial binding | SLIGRL-induced scratching behavior [4]: significantly inhibited | head shaking, MC903 model [5]: significantly ameliorated | scratching, MC903 model [5]: significantly ameliorated

CN1CCN(C2=Nc3ccccc3Oc3ccc(Cl)cc32)CC1 [Loxapine, 2-chloro-11-(4-methylpiperazin-1-yl)dibenzo[b,f][1,4]oxazepine, reference compound]
inhibition at 10 µM (muscarine M1 receptor): > 50% | inhibition at 10 µM (muscarine M3 receptor): > 50%
